One assay concerns the target T1, HIV protease (Human immunodeficiency virus type 1 group M subtype B, UniProt P04585).
T1 construct: and purified protease
The experiment in a line: HIV Protease Assay. The format is biochemical. The method, boiled down: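 Purified protease cleaved 450 μM octapeptide substrate in 50 mM sodium acetate pH 5.5 with 100 μg/ml BSA for 30 minutes at 37° C; product analyzed by reverse-phase HPLC at UV220 after H3PO4 quench. Inhibitors tested at final 10 μM with 4% DMSO.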

The test system of assay [1] is RF strain of HIV (CEM-SS cells). The experiment in a line: Cell Culture Anti-HIV Activity (cell viability, formazan). Conditions: Human immunodeficiency virus 1, CEM-SS, 144 h, CEM-SS cells, RF strain of HIV, multiplicity of infection 0.04, 6 days at 37° C., 450 nm; read-out: HIV (CEM Cells) IC50. The format is cell-based. The method, boiled down:
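CEM-SS cells (5000/well) infected with HIV RF at MOI 0.04, exposed to half-log serial compound dilutions, incubated 6 days at 37° C. Viability read by tetrazolium reduction to formazan, absorbance 450 nm. IC50 is the concentration raising formazan in infected cells to 50% of uninfected, drug-free cells.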

[2] abbreviates: pH 5.5, 10 μM inhibitor, 4% DMSO, 450 μM substrate, pH 5.5, 30 minutes at 37° C., RP-HPLC, read-out: HIV Protease % Inhibition at 10 μM.

The text below walks through data of US5760036A, “Aminediol protease inhibitors” (E. R. Squibb & Sons, Inc., priority 1995, dated 1998).

Structures are written as SMILES. Like-named read-outs stand apart in the source and are kept apart here. A value given as a limit tells only on which side of the number the result lay.

For the molecule `CC(C)[C@H](NC(=O)OC(C)(C)C)C(=O)N[C@@H](Cc1ccccc1)[C@H](O)CNC[C@@H](O)[C@H](Cc1ccccc1)NC(=O)OC(C)(C)C` [Compound 58, [S-[1R*,2S*(2S*,3R*)]-N-[3-[[3-[[(1,1-Dimethylethoxy)carbonyl]amino]-2-hydroxy-4-phenylbutyl]amino]-2-hydroxy-1-(phenylmethyl)-propyl-N^2-[(1,1-dimethylethoxy)-carbonyl]-L-valinamide], the inhibition (usually the drop in the measured response relative to a control, in per cent) at 10 µM at HIV protease (setting [2]) stood at 57%. The half-maximal inhibitory concentration (IC50) (commonly the concentration at which inhibition is half-maximal) in assay [1] worked out at 1000 nM.
Regarding `CC(C)(C)CC(=O)N[C@@H](Cc1ccccc1)[C@H](O)CNC[C@@H](O)[C@H](Cc1ccccc1)NC(=O)OC(C)(C)C` [Compound 60, [1S-[1R*,2S*(2S*,3R*)]]-[3 [[3-[(3,3-Dimethyl-1-oxybutyl)amino]-2-hydroxy-4-phenylbutyl]amino]-2-hydroxy-1-(phenylmethyl)-propyl]carbamic acid, 1,1-dimethylethyl ester], the inhibition at 10 µM at HIV protease (pH 5.5, read-out: HIV Protease % Inhibition at 10 μM) was found to be 78%. The half-inhibitory concentration (IC50) in assay [1] was determined as 1200 nM.
Take `CC(C)[C@H](NC(=O)[C@H](Cc1ccccc1)NC(=O)OCc1ccccc1)C(=O)N[C@@H](Cc1ccccc1)[C@H](O)CNC[C@@H](O)[C@H](Cc1ccccc1)NC(=O)OC(C)(C)C` [Compound 62, [1S-[1R*,2S*(2S*,3R*)]-N-[3-[[3-[[(1,1-Dimethylethoxy)carbonyl]amino]-2-hydroxy-4-phenylbutyl]amino]-2-hydroxy-1-(phenyl-methyl)propyl]-N^2-[(phenylmethoxy)carbonyl]-L-phenylalanyl]-L-valinamide]: on HIV protease (setting [2]), the inhibition at 10 µM was 98%. Also, the concentration for half-maximal inhibition (IC50) in assay [1] stood at 50 nM.
For `CC(C)(C)OC(=O)N[C@@H](Cc1ccccc1)[C@H](O)CNC[C@@H](O)[C@H](Cc1ccccc1)NC(=O)c1ccc2ccccc2c1` [Compound 64, [1S-[1R*,2S*(2S*,3R*)]]-[2-Hydroxy-3-[[2-hydrox-3-[(2-naphthalenyl-carbonyl)amino]-4-phenylbutyl]amino]-1-(phenylmethyl)propyl]carbamic acid, 1,1-dimethylethyl ester] the same measures were 72% and over 5000 nM.
With `CC(C)[C@@H](C(=O)N[C@@H](Cc1ccccc1)[C@H](O)CNC[C@@H](O)[C@H](Cc1ccccc1)NC(=O)OC(C)(C)C)N(C)C(=O)OCc1ccccc1` [Compound 66, [S-[1R*,2S*(2S*,3R*)]]-N-[3-[[3-[(1,1-Dimethylethoxy)carbonyl)amino]-2-hydroxy-4-[phenylbutyl]amino]-2-hydroxy-1-(phenylmethyl)propyl]-N^2-methyl-N^2 [(phenylmethoxy)-carbonyl]-L-valinamide], the inhibition at 10 µM on HIV protease (setting [2]) is 99%. Also, the 50% inhibitory concentration (IC50) in assay [1] was 270 nM.
With `CC(C)[C@H](NC(=O)OC1CCc2ccccc21)C(=O)N[C@@H](Cc1ccccc1)[C@H](O)CNC[C@@H](O)[C@H](Cc1ccccc1)NC(=O)OC(C)(C)C` (stereo partly drawn) [Compound 67, [S-[1R*,2S*(2S*,3R*)]]-N^2-[[2,3-Dihydro-1H-inden-1-yl)oxy]carbonyl]-N-[3-[[3-[[(1,1-dimethylethoxy)carbonyl]amino]-2-hydroxy-4-phenylbutyl]amino]-2-hydroxy-1-(phenylmethyl)propyl]-L-valinamide], at HIV protease (setting [2]), the inhibition at 10 µM amounted to 100%. Also, the 50% inhibitory concentration (IC50) in assay [1] stood at 40 nM.
In the case of `CC(C)[C@H](NC(=O)OCc1ccc(-c2ccccc2)cc1)C(=O)N[C@@H](Cc1ccccc1)[C@H](O)CNC[C@@H](O)[C@H](Cc1ccccc1)NC(=O)OC(C)(C)C` [Compound 68, [S-[1R*,2S*(2S*,3R*)]]-N^2-[([1,1-Biphenyl]-4-ylmethoxy]carbonyl-N-[3-[[3-[[(1,1-dimethylethoxy)carbonyl]amino]-2-hydroxy-4-phenylbutyl]amino]-2-hydroxy-l-(phenylmethyl)[propyl]-L-valinamide], the inhibition at 10 µM at HIV protease (setting [2]) is 99%. The IC50 in assay [1] was determined as 110 nM.
With `CC(C)[C@H](NC(=O)OCc1ccccn1)C(=O)N[C@@H](Cc1ccccc1)[C@H](O)CNC[C@@H](O)[C@H](Cc1ccccc1)NC(=O)OC(C)(C)C` [Compound 70, [S-[1R*,2S*(2S*,3R*)]]-N-[3-[[3-[[(1,1-Dimethylethoxy)carbonyl]amino]-2-hydroxy-4-phenylbutyl]amino]-2-hydroxy-1-(phenylmethyl)-propyl]-N^2-(2-pyridinylmethoxy)carbonyl]-L-valinamide], the inhibition at 10 µM at HIV protease (setting [2]) was found to be 100%. For the same molecule, in assay [1], the IC50 came out at 500 nM.
Take `CC(C)[C@@H](NC(=O)OCc1ccccc1)C(=O)N[C@@H](Cc1ccccc1)[C@H](O)CNC[C@@H](O)[C@H](Cc1ccccc1)NC(=O)OC(C)(C)C` [Compound 71, [R-[1S*,2R*(2R*, 3S*)]]-N-[3-[[3-[[(1,1-Dimethylethoxy)carbonyllamino]2-hydroxy-4-phenylbutyl]amino]-2-hydroxy-1-phenylmethyl)propyl]-N^2-[(phenylmethoxy)-carbonyl]-D-valinamide]: the inhibition at 10 µM at HIV protease (setting [2]) was found to be 58%. Moreover, the concentration for half-maximal inhibition (IC50) in assay [1] was 1200 nM.
As to `CC(C)C(C)(NC(=O)OCc1ccccc1)C(=O)N[C@@H](Cc1ccccc1)[C@H](O)CNC[C@@H](O)[C@H](Cc1ccccc1)NC(=O)OC(C)(C)C` (stereo partly drawn) [Compound 73, [(S,R)-3-[[(R,S)-3-[[2-[[(Phenyl-methoxy)carbonyl)amino]-2,3-dimethyl-1-oxy-butyl]amino]-2-hydroxy-4-phenylbutyl]amino]-2-hydroxy-1-(phenylmethyl)-propyl]carbamic acid, 1,1-dimethylethyl ester], on HIV protease (setting [2]), the inhibition at 10 µM amounted to 99%. Also, in assay [1], the IC50 was 600 nM.
With `CC(C)[C@H](NC(=O)N(C)Cc1ccccn1)C(=O)N[C@@H](Cc1ccccc1)[C@H](O)CNC[C@@H](O)[C@H](Cc1ccccc1)NC(=O)[C@@H](NC(=O)N(C)Cc1ccccn1)C(C)C` [Compound 75, [S-(1R*,2S*)]-N,N'-[Iminobisr[2-hydroxy-1-(phenylmethyl)-3,1-propanediyl]bisr[N^2-[[methyl(2-pyridinylmethyl)amino]carbonyl]-L-valinamide], the inhibition at 10 µM on HIV protease (setting [2]) was found to be 100%. Also, the half-maximal inhibitory concentration (IC50) in assay [1] amounted to 5000 nM.
As for `CC(C)[C@H](NC(=O)N(C)Cc1ccccn1)C(=O)N[C@@H](Cc1ccccc1)[C@H](O)CNC[C@@H](O)[C@H](Cc1ccccc1)NC(=O)OC(C)(C)C` [Compound 76, [S-[1R*,2S*(2S*,3R*)]]-N-[3-[[3-[[(1,1-Dimethylethoxy)carbonylamino]-2-hydroxy-4-phenylbutyl]amino]-2-hydroxy-1-(phenylmethyl)propyl]-N^2 [[methyl(2-pyridinyl-methyl)amino]carbonyl]-L-valinamide], the inhibition at 10 µM at HIV protease (setting [2]) is 100%. Moreover, the IC50 in assay [1] worked out at 600 nM.
On to `CC(C)[C@H](NC(=O)[C@@H](O)Cc1ccccc1)C(=O)N[C@@H](Cc1ccccc1)[C@H](O)CNC[C@@H](O)[C@H](Cc1ccccc1)NC(=O)OC(C)(C)C` [Compound 77, [S-[1R*,2S*(2S*,3R*,N^2 R*]]-N-[3-[[3-[[(1,-Dimethylethoxy)carbonyl]amino]-2-hydroxy-4-phenylbutyl]amino]-2-hydroxy-(phenyyl-methyl)propyl]N^2-(2-hydroxy-1-oxo-3-phenyl-propyl)-L-valinamide], for which the inhibition at 10 µM at HIV protease (setting [2]) amounted to 99%. Moreover, in assay [1], the concentration for half-maximal inhibition (IC50) was 200 nM.
As to `CC(C)[C@H](NC(=O)[C@H](O)Cc1ccccc1)C(=O)N[C@@H](Cc1ccccc1)[C@H](O)CNC[C@@H](O)[C@H](Cc1ccccc1)NC(=O)OC(C)(C)C` [Compound 78, [S-[1R*,2S*[2S*,3R*,N1S*]-N-[3-[[3-[[(1,1-Dimethylethoxy)carbonyl]amino]-2-hydroxy-4-phenylbutyl]amino]-2-hydroxy-1-(phenylmethyl)[propyl]-N^2-(2-hydroxy-1-oxo-3-phenyl-propyl)-L-valinamide], on HIV protease (setting [2]), the inhibition at 10 µM is 99%. In assay [1], the IC50 stood at 160 nM.
For `CC(C)[C@H](NC(=O)c1ccc2ccccc2c1)C(=O)N[C@@H](Cc1ccccc1)[C@H](O)CNC[C@@H](O)[C@H](Cc1ccccc1)NC(=O)OC(C)(C)C` [Compound 79, [S-[1R*,2S*(2S*,3R*)]]-N-[3-[[3-[[(1,1-Dimethylethoxy)carbonyl]amino]-2-hydroxy-4-phenylbutyl]amino]-2-hydroxy-1-(phenylmethyl)propyl]-N^2 (2-naphthalenylcarbonyl)-L-valinamide] the same measures were 99% and 400 nM.
For `CC(C)[C@H](NC(=O)c1ccc2ccccc2n1)C(=O)N[C@@H](Cc1ccccc1)[C@H](O)CNC[C@@H](O)[C@H](Cc1ccccc1)NC(=O)OC(C)(C)C` [Compound 80, [S-[1R*,2S*(2S*,3R*)]]-N-[3-[[3-[[(1,1-Dimethylethoxy)carbonyl]amino]-2-hydroxy-4-phenylbutyl]amino]-2-hydroxy-1-(phenylmethyl)propyl]-N2-(2-quinolinylcarbonyl)-L-valinamide] the same measures were 98% and 300 nM.
Consider `CC(C)C(NC(=O)OCc1ccccc1)C(=O)NC(Cc1ccccc1)C(O)CNCC(O)C(Cc1ccccc1)NC(=O)C(NC(=O)OCc1ccccc1)C(C)C` [Compound 82, [S-[1R*,2R*(2S*,3R*)]]-N-[2-Hydroxy-3-[[2-hydroxy-4-phenyl-3-[[[N-(phenylmethoxy)carbonyl]-L-valyl]amino]butyl]amino]-1-(phenylmethyl)propyl]-N-^2-[(phenylmethoxy)carbonyl]-L-valinamide], for which the inhibition at 10 µM at HIV protease (setting [2]) is 94%. Moreover, the IC50 in assay [1] was over 3000 nM.
